Experimental data as given in patent US4157392A, “Pharmacologically active substituted 1,2,4-triazines” (Diamond Shamrock Corporation, priority 1978, dated 1979).
Read-outs that look alike come from different tables or passages of the source.

Key:
[1] = tested on: carrageenin-induced edema in the hind paw of a rat; experiment: Carrageenin Assay (carrageenin-induced edema, hind paw); assay type: in vivo, rat (male, Long Evans strain); conditions: 1 h before carrageenin, edema at 3 h, compared to phenylbutazone control values; for inhibition in vivo at 175 mg/kg: 175 mg/kg oral
Protocol: The procedure employed is a modification of the method of Winter et al, Proc. Soc. Exptl. Biol. Med. 111:544 (1962). The device used for measurement of the paw volume is an adaptation of the water displacement procedure described by Adamkiewicz et al, Can. J. Biochem. Physiol. 33:332 (1955). Test compounds were administered orally, one hour prior to the intraplantar injection of 0.05 ml. of sterile 1.0 percent solution of carrageenin into the left hind paw of male rats (Long Evans strain) weighing between about 130-200 grams. At peak swelling time (3 hours) the volume of edema was calculated by differential paw volumes.
Table I sets forth the results obtained (indicated as percent reduction of edema compared to phenylbutazone control values) at the indicated dosages for each of the identified compounds.

[2] = tested on: phenylquinone writhing in mice; experiment: Phenylquinone Writhing Assay (analgesia); assay type: in vivo, mouse (Carworth CF1 male mice); conditions: for responders at 70 mg/kg: 70 mg/kg oral
Protocol: The phenylquinone writhing test was employed to evaluate analgesic activity according to the following procedure:
Phenylquinone (phenyl-p-benzoquinone, No. 7104, Eastman Organic Chemicals) is made up as a 0.02% aqueous solution in 5% ethyl alcohol. Phenylquinone solutions are made up fresh twice daily. Standard reference agents and the test compounds are dissolved or suspended in a 0.25% methylcellulose solution. A control group consisting of ten mice (Carworth CF1 male mice) are administered the 0.02% phenylquinone solution at a dose of 0.25 ml/mouse. The mice are housed individually and observed closely for ten minutes for exhibition of writhing. The onset of writhing occurs within three minutes and 100% of the mice must writhe within ten minutes. Test compounds are administered orally to groups of ten mice. The volume given is 0.01 ml/gram of body weight. Activity can be studied at 15, 30, 60, and 120 minutes after oral administration. After the designated time interval of a dose group has elapsed, the mice are challenged with phenylquinone intraperitoneally. Complete blocking of the writhing syndrom for the ten minute observation period in any one mouse is considered a positive analgesic response for that mouse. Conversely, if any mouse writhes definitely once it is considered not to be protected. The number of mice not writhing in group multiplied by ten equals percent analgesia for that dose at that time interval.

[3] = Rattus norvegicus, read-out: % Reduction of Edema
[4] = Mus musculus, po, 0.5 h, 100 mg/kg oral, 30 Min., read-out: Phenylquinone Writhing Assay (% Control), percent analgesia
[5] = Rattus norvegicus, 200 mg/kg oral, read-out: % Reduction of Edema
[6] = Mus musculus, po, 0.5 h, 50 mg/kg oral, 30 Min., read-out: Phenylquinone Writhing Assay (% Control), percent analgesia
[7] = Mus musculus, po, 0.5 h, 30 Min., read-out: Phenylquinone Writhing Assay (% Control), percent analgesia
[8] = Mus musculus, po, 1 h, 100 mg/kg oral, 60 Min, read-out: Phenylquinone Writhing Assay (% Control), percent analgesia

Molecule: 3-methoxy-5,6-di(4'-methylphenoxy)-1,2,4-triazine [Example 26]
- % Reduction of Edema ([1]; 200 mg/kg oral): 12%
- Phenylquinone Writhing Assay (% Control), percent analgesia ([2]; 25 mg/kg oral, 15 Min.): 10%
- Phenylquinone Writhing Assay (% Control), percent analgesia ([2]; 25 mg/kg oral, 30 Min.): 10%
- Phenylquinone Writhing Assay (% Control), percent analgesia ([2]; 25 mg/kg oral, 60 Min): 10%
- Phenylquinone Writhing Assay (% Control), percent analgesia ([2]; 50 mg/kg oral, 15 Min.): 40%
- Phenylquinone Writhing Assay (% Control), percent analgesia ([2]; 50 mg/kg oral, 30 Min.): 10%
- Phenylquinone Writhing Assay (% Control), percent analgesia ([2]; 50 mg/kg oral, 60 Min): 20%
- Phenylquinone Writhing Assay (% Control), percent analgesia ([2]; 100 mg/kg oral, 15 Min.): 20%
- Phenylquinone Writhing Assay (% Control), percent analgesia ([2]; 100 mg/kg oral, 30 Min.): 50%
- Phenylquinone Writhing Assay (% Control), percent analgesia ([2]; 100 mg/kg oral, 60 Min): 50%

Molecule: CSc1nncc(-c2ccccc2)n1 [Example 1, 3-methylthio-5-phenyl-1,2,4-triazine]
- inhibition in vivo at 175 mg/kg [1, 3]: 27%
- responders at 50 mg/kg ([2]; Mus musculus, po, 0.25 h, 50 mg/kg oral, 15 Min., read-out: Phenylquinone Writhing Assay (% Control), percent analgesia): 10%
- responders at 100 mg/kg [2, 4]: 10%

Molecule: CSc1nncc(C(C)(C)C)n1 [Example 4, 3-methylthio-5-t-butyl-1,2,4-triazine]
- inhibition in vivo at 150 mg/kg ([1]; Rattus norvegicus, 150 mg/kg oral, read-out: % Reduction of Edema): 57%
- responders at 100 mg/kg [2, 4]: 20%

Molecule: CC(C)(C)c1cnnc(NN)n1 [Example 5, 3-hydrazino-5-t-butyl-1,2,4-triazine]
- inhibition in vivo at 175 mg/kg [1, 3]: 82%
- responders at 25 mg/kg ([2]; Mus musculus, po, 0.5 h, 25 mg/kg oral, 30 Min., read-out: Phenylquinone Writhing Assay (% Control), percent analgesia): 20%

Molecule: CSc1nncc(-c2cccs2)n1 [Example 6, 3-methylthio-5-(2'-thienyl)-1,2,4-triazine]
- inhibition in vivo at 200 mg/kg [1, 5]: 51%
- responders at 25 mg/kg ([2]; Mus musculus, po, 0.25 h, 25 mg/kg oral, 15 Min., read-out: Phenylquinone Writhing Assay (% Control), percent analgesia): 20%
- responders at 50 mg/kg [2, 6]: 70%

Molecule: COc1nncc(-c2cccc(C(F)(F)F)c2)n1 [Example 8, 3-methoxy-5-(3'-trifluoromethylphenyl)-1,2,4-triazine]
- inhibition in vivo at 100 mg/kg ([1]; Rattus norvegicus, 100 mg/kg oral, read-out: % Reduction of Edema): 77%
- responders at 70 mg/kg [2, 7]: 10%

Molecule: CSc1nncc(-c2ccco2)n1 [Example 9, 3-methylthio-5-(2-furyl)-1,2,4-triazine]
- inhibition in vivo at 200 mg/kg [1, 5]: 39%
- responders at 50 mg/kg [2, 6]: 50%
- responders at 50 mg/kg ([2]; Mus musculus, po, 1 h, 50 mg/kg oral, 60 Min, read-out: Phenylquinone Writhing Assay (% Control), percent analgesia): 10%

Molecule: CSc1nnc(C)c(C)n1 [Example 10, 3-methylthio-5,6-dimethyl-1,2,4-triazine]
- inhibition in vivo at 70 mg/kg ([1]; Rattus norvegicus, 70 mg/kg oral, read-out: % Reduction of Edema): 54%
- responders at 100 mg/kg [2, 4]: 70%
- responders at 100 mg/kg [2, 8]: 20%

Molecule: CSc1nnc(-c2ccccn2)c(-c2ccccn2)n1 [Example 12, 3-methylthio-5,6-(2'-pyridyl)-1,2,4-triazine]
- inhibition in vivo at 200 mg/kg [1, 5]: 19%
- responders at 100 mg/kg [2, 4]: 10%
- responders at 100 mg/kg [2, 8]: 20%

Molecule: CSc1nncc(-c2c[nH]c3ccccc23)n1 [Example 13, 3-methylthio-5-(3'-indolyl)-1,2,4-triazine]
- inhibition in vivo at 200 mg/kg [1, 5]: 71%

Molecule: CSc1nnc(-c2ccc(NC(C)=O)cc2)c(-c2ccc(NC(C)=O)cc2)n1 [Example 14, 3-methylthio-5,6-(4'-acetamidophenyl)-1,2,4-triazine]
- inhibition in vivo at 200 mg/kg [1, 5]: 12%

Molecule: COc1nncc(C)n1 [Example 17, 3-methoxy-5-methyl-1,2,4-triazine]
- inhibition in vivo at 200 mg/kg [1, 5]: 8%

Molecule: COc1nncc(C(C)(C)C)n1 [Example 18, 3-methoxy-5-t-butyl-1,2,4-triazine]
- inhibition in vivo at 200 mg/kg [1, 5]: 64%
- responders at 50 mg/kg [2, 6]: 40%

Molecule: COc1nncc(-c2ccco2)n1 [Example 20, 3-methoxy-5-(2'-furyl)-1,2,4-triazine]
- inhibition in vivo at 175 mg/kg [1, 3]: 70%
- responders at 30 mg/kg ([2]; Mus musculus, po, 0.5 h, 30 mg/kg oral, 30 Min., read-out: Phenylquinone Writhing Assay (% Control), percent analgesia): 10%

Molecule: CCOc1nncc(-c2ccccc2)n1 [Example 21, 3-ethoxy-5-phenyl-1,2,4-triazine]
- inhibition in vivo at 200 mg/kg [1, 5]: 96%

Molecule: COc1nncc(-c2ccc3ccccc3c2)n1 [Example 22, 3-methoxy-5-(2'-naphthyl)-1,2,4-triazine]
- inhibition in vivo at 200 mg/kg [1, 5]: 7%
- responders at 100 mg/kg ([2]; Mus musculus, po, 0.25 h, 100 mg/kg oral, 15 Min., read-out: Phenylquinone Writhing Assay (% Control), percent analgesia): 20%
- responders at 100 mg/kg [2, 4]: 10%
- responders at 100 mg/kg [2, 8]: 10%

Molecule: COc1nnc(C)c(C)n1 [Example 23, 3-methoxy-5,6-dimethyl-1,2,4-triazine]
- inhibition in vivo at 40 mg/kg ([1]; Rattus norvegicus, 40 mg/kg oral, read-out: % Reduction of Edema): 4%

Molecule: Cc1nnc(OC(C)C)nc1C [Example 24, 3-isopropoxy-5,6-dimethyl-1,2,4-triazine]
- inhibition in vivo at 200 mg/kg [1, 5]: 37%
- responders at 70 mg/kg [2, 7]: 10%
